These compounds were tested against T1, human recombinant P2X7 receptors (Homo sapiens, UniProt Q99572) (assay: Ethidium Accumulation Assay). Conditions: HEK293 cells stably expressing human recombinant P2X7; blocking 1 mM ATP response; typically mean of more than one measurement; 'about' values; read-out: pIC50 in the Ethidium Accumulation Assay or a slightly modified version thereof (converted).
T1 construct: expressed in transfected cells
T1 sequence (Q99572 1-595): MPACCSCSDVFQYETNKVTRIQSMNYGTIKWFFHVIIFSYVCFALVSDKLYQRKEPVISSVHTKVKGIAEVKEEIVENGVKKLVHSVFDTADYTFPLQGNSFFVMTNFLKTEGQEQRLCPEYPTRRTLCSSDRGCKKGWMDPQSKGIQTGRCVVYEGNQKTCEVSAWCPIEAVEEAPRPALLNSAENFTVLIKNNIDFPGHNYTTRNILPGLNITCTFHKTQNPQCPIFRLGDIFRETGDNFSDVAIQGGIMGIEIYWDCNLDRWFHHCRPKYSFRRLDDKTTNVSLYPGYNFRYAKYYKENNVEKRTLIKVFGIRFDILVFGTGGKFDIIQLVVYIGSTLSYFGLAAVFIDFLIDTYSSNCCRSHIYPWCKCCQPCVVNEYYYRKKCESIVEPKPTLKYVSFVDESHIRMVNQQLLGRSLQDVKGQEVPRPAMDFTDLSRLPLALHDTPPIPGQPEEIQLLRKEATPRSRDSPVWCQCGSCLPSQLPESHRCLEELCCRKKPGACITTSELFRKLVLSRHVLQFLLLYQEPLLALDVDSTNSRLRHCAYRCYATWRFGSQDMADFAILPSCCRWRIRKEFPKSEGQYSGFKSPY
Type: cell-based
Description: Studies were performed using NaCl assay buffer of the following composition: 140 mM NaCl, 10 mM HEPES [4-(2-hydroxyethyl)-1-piperazine-1-ethanesulfonic acid], 5 mM N-methyl-D-glucamine, 5.6 mM KCl, 10 mM D-glucose, 0.5 mM CaCl2(pH 7.4).
Human Embryonic Kidney (HEK) 293 cells, stably expressing human recombinant P2X7 receptors, were grown in poly-D-lysine pretreated 96 well plates for 18-24 hours. (The cloning of the human P2X7 receptor is described in U.S. Pat. No. 6,133,434, e.g. see Example 3 therein). The cells were washed twice with 350 μl of the assay buffer, before addition of 50 μl of the assay buffer containing the putative P2X7 receptor antagonist compound. (A small amount of dimethyl sulfoxide, for initially dissolving the compound, is optionally used and present in this 50 μl test compound sample.) The cells were then incubated at room temperature (19-21° C.) for 30 min before addition of ATP and ethidium (100 μM final assay concentration). The ATP concentration was chosen to be close to the EC80 for the receptor type and was 1 mM for studies on the human P2X7 receptor. Incubations were continued for 8 or 16 min and were terminated by addition of 25 μl of 1.3M sucrose containing 4 mM of the P2X7 receptor antagonist Reactive Black 5 (Aldrich). Cellular accumulation of ethidium was determined by measuring fluorescence (excitation wavelength of 530 nm and emission wavelength of 620 nm) from below the plate with a Can berra Packard Fluorocount (14 Station Road, Pangbourne, Reading, Berkshire RG8 7AN, United Kingdom) or a FlexStation II 384 from Molecular Molecular Devices (660-665 Eskdale Road, Wokingham, Berkshire RG41 5TS, United Kingdom). Antagonist plC50 values for blocking ATP responses were determined using iterative curve fitting techniques.

SMILES | IC50 [nM]
CN1C(C(=O)NCc2ccc(F)cc2Cl)CCS1(=O)=O (stereo not shown) [Example 3, N-[(2-chloro-4-fluorophenyl)methyl]-2-methyl-3-isothiazolidinecarboxamide 1,1-dioxide] | 10 to 316
CC(C)CN1C(C(=O)NCc2ccc(Cl)cc2Cl)CCS1(=O)=O (stereo not shown) [Example 4, N-[(2,4-dichlorophenyl)methyl]-2-(2-methylpropyl)-3-isothiazolidinecarboxamide 1,1-dioxide] | 10 to 316
CC(C)CN1C(C(=O)NCc2ccccc2Cl)CCS1(=O)=O (stereo not shown) [Example 11, N-[(2-chlorophenyl)methyl]-2-(2-methylpropyl)-3-isothiazolidinecarboxamide 1,1-dioxide] | 3980 to 15800
CN1C(C(=O)NCc2ccc(Cl)cc2Cl)CCS1(=O)=O (stereo not shown) [Example 13, N-[(2,4-dichlorophenyl)methyl]-2-methyl-3-isothiazolidinecarboxamide 1,1-dioxide] | 10 to 316
CCN1C(C(=O)NCc2ccc(F)cc2Cl)CCS1(=O)=O (stereo not shown) [Example 15, N-[(2-chloro-4-fluorophenyl)methyl]-2-ethyl-3-isothiazolidinecarboxamide 1,1-dioxide] | 10 to 316
Cc1c(Cl)cccc1CNC(=O)C1CCS(=O)(=O)N1C (stereo not shown) [Example 17, N-[(3-chloro-2-methylphenyl)methyl]-2-methyl-3-isothiazolidinecarboxamide 1,1-dioxide] | 10 to 316
Cc1c(Cl)cccc1CNC(=O)C1CCS(=O)(=O)N1C(C)C (stereo not shown) [Example 18, N-[(3-chloro-2-methylphenyl)methyl]-2-(1-methylethyl)-3-isothiazolidinecarboxamide 1,1-dioxide] | 10 to 316
CCN1C(C(=O)NCc2cccc(Cl)c2C)CCS1(=O)=O (stereo not shown) [Example 20, N-[(3-chloro-2-methylphenyl)methyl]-2-ethyl-3-isothiazolidinecarboxamide 1,1-dioxide] | 10 to 316
CCN1C(C(=O)NCc2ccc(F)cc2C(F)(F)F)CCS1(=O)=O (stereo not shown) [Example 21, 2-ethyl-N-{[4-fluoro-2-(trifluoromethyl)phenyl]methyl}-3-isothiazolidinecarboxamide 1,1-dioxide] | 10 to 316
CC(C)N1C(C(=O)NCc2ccc(F)cc2Cl)CCS1(=O)=O (stereo not shown) [Example 22, N-[(2-chloro-4-fluorophenyl)methyl]-2-(1-methylethyl)-3-isothiazolidinecarboxamide 1,1-dioxide] | 10 to 316
CCN1C(C(=O)NCc2ccc(Cl)cc2Cl)CCS1(=O)=O (stereo not shown) [Example 24, N-[(2,4-dichlorophenyl)methyl]-2-ethyl-3-isothiazolidinecarboxamide 1,1-dioxide] | 10 to 316
CC(C)N1C(C(=O)NCc2ccc(Cl)cc2Cl)CCS1(=O)=O (stereo not shown) [Example 27, N-[(2,4-dichlorophenyl)methyl]-2-(1-methylethyl)-3-isothiazolidinecarboxamide 1,1-dioxide] | 10 to 316
CN1C(C(=O)NCc2cccc(C(F)(F)F)c2Cl)CCS1(=O)=O (stereo not shown) [Example 29, N-{[2-chloro-3-(trifluoromethyl)phenyl]methyl}-2-methyl-3-isothiazolidinecarboxamide 1,1-dioxide] | 10 to 316
CN1C(C(=O)NCc2ccc(F)c(F)c2Cl)CCS1(=O)=O (stereo not shown) [Example 30, N-[(2-chloro-3,4-difluorophenyl)methyl]-2-methyl-3-isothiazolidinecarboxamide 1,1-dioxide] | 10 to 316
CCN1C(C(=O)NCc2ccc(F)c(F)c2Cl)CCS1(=O)=O (stereo not shown) [Example 31, N-[(2-chloro-3,4-difluorophenyl)methyl]-2-ethyl-3-isothiazolidinecarboxamide 1,1-dioxide] | 10 to 316
CCN1C(C(=O)NCc2cccc(C(F)(F)F)c2Cl)CCS1(=O)=O (stereo not shown) [Example 32, N-{[2-chloro-3-(trifluoromethyl)phenyl]methyl}-2-ethyl-3-isothiazolidinecarboxamide 1,1-dioxide] | 10 to 316
CN1C(C(=O)NCc2ccc(Cl)cc2Cl)CCCS1(=O)=O (stereo not shown) [Example 35, N-[(2,4-dichlorophenyl)methyl]-2-methyltetrahydro-2H-1,2-thiazine-3-carboxamide 1,1-dioxide] | 10 to 316

Results, then the compound that gave them:

IC50 [nM] | SMILES
10 to 316 | CCN1C(C(=O)NCc2ccc(Cl)cc2Cl)CCCS1(=O)=O (stereo not shown) [Example 36, N-[(2,4-dichlorophenyl)methyl]-2-ethyltetrahydro-2H-1,2-thiazine-3-carboxamide 1,1-dioxide]
3980 to 15800 | CCN1C(C(=O)NCc2ccccc2Cl)CCCS1(=O)=O (stereo not shown) [Example 39, N-[(2-chlorophenyl)methyl]-2-ethyltetrahydro-2H-1,2-thiazine-3-carboxamide 1,1-dioxide]
3980 to 15800 | Cc1cccc(Cl)c1CNC(=O)C1CCCS(=O)(=O)N1C(C)C (stereo not shown) [Example 41, N-[(2-chloro-6-methylphenyl)methyl]-2-(1-methylethyl)tetrahydro-2H-1,2-thiazine-3-carboxamide 1,1-dioxide]
3980 to 15800 | CC(C)N1C(C(=O)NCc2ccc(F)cc2Cl)CCCS1(=O)=O (stereo not shown) [Example 43, N-[(2-chloro-4-fluorophenyl)methyl]-2-(1-methylethyl)tetrahydro-2H-1,2-thiazine-3-carboxamide 1,1-dioxide]
3980 to 15800 | CC(C)N1C(C(=O)NCc2ccccc2Cl)CCCS1(=O)=O (stereo not shown) [Example 44, N-[(2-chlorophenyl)methyl]-2-(1-methylethyl)tetrahydro-2H-1,2-thiazine-3-carboxamide 1,1-dioxide]
3980 to 15800 | CC(C)N1C(C(=O)NCc2ccc(F)c(F)c2F)CCCS1(=O)=O (stereo not shown) [Example 46, 2-(1-methylethyl)-N-[(2,3,4-trifluorophenyl)methyl]tetrahydro-2H-1,2-thiazine-3-carboxamide 1,1-dioxide]
3980 to 15800 | CC(C)N1C(C(=O)NCc2ccc(F)cc2C(F)(F)F)CCCS1(=O)=O (stereo not shown) [Example 47, N-{[4-fluoro-2-(trifluoromethyl)phenyl]methyl}-2-(1-methylethyl)tetrahydro-2H-1,2-thiazine-3-carboxamide 1,1-dioxide]
3980 to 15800 | CN1C(C(=O)NCc2ccc(F)cc2C(F)(F)F)CCCS1(=O)=O (stereo not shown) [Example 48, N-{[4-fluoro-2-(trifluoromethyl)phenyl]methyl}-2-methyltetrahydro-2H-1,2-thiazine-3-carboxamide 1,1-dioxide]

Source: patent US20100292224A1, “ISOTHIAZOLIDINE 1,1-DIOXIDE AND TETRAHYDRO-2H-1,2-THIAZINE 1,1-DIOXIDE DERIVATIVES AS P2X7 MODULATORS” (GLAXO GROUP LIMITED, priority 2007, published 2010)
